Results taken from US20240324593A1, “OCTENIDINE COMPOSITIONS AND METHODS OF USE THEREOF” (Solventum Intellectual Properties Company, priority 2021, published 2024).
Where a name gives a salt, the structure may show the parent alone.

Legend:
[1] = Homogeneity of the composition / precipitation of octenidine; format: physicochemical; settings: aqueous composition of octenidine hydrochloride with enhancer
Experimental: Water and the carnitine enhancer (i.e., carnitine inner salt, carnitine tartrate tartaric acid, carnitine fumarate, or acetyl carnitine) to a 20 mL glass vial mixed with magnetic stirring. Octenidine hydrochloride (10% solution in 50:50 weight percentage methanol:water) was further added in the amount described in the tables below. The pH was adjusted using 1N HCL or NaOH. Glycerol (3 g) and Natrosol 250 HHX […] were added to a flask and mixed with a DAC 400 FVZ SPEEDMIXER dual asymmetric centrifuge mixer (from Flacktek, Inc Landrum, S.C.) at 2500 rpm for 30 seconds. The glycerol and Natrosol 250 HHX (1.3 g) were combined with the enhancer solution in a 40 gms Flack Tec cup and mixed for an additional 30 seconds at 2500 rpm. The resulting solutions were homogenous. Refer to Examples 1-36 below (total weight percentages of octenidine hydrochloride and carnitine enhancer within composition are provided in tables; glycerol about 8-9 wt %; Natrosol 250 HHX about 2-3 wt %; and water makes up the difference). The solutions of Examples 1-27 below were subjected to antimicrobial testing according to the method below.
As described above, aqueous compositions including only octenidine hydrochloride and a respective enhancer were also prepared (i.e., absent glycerol and Natrosol 250 HHX), similar to the formulations described in Tables 1-5. All compositions formed homogenous solutions. […]

[2] = Antimicrobial Efficiency Test, other antimicrobials with carnitine enhancers (Table 5); format: cell-based; settings: with versus without carnitine enhancer
Experimental: Solutions of water, carnitine enhancer, and various other antimicrobials (i.e., chlorhexidine gluconate, benzalkonium chloride, polyhexamethylene biguanide) were prepared according to the procedure described immediately above.
Ex vivo porcine mucosa is transported to laboratory on ice pack and then trimmed and transferred in to RPMI 1640+2% PS media. A 5 mm biopsy punch is used to cut samples for assay. Remove most of the remaining muscle tissue with a fresh scalpel blade. Rinse 3× with 10±0.5 ml RPMI no ABX, no FCS. Transfer to incubator. Set up a 6 well plate with 1.5±0.2 mL RPMI (no ABX, no FCS) in each well and a 0.4 μm transwell insert. Transfer tissue explants mucosal side up to the insert (3 explants/well).
Passage overnight culture 1:10 into THB and return to shaking incubator for 2-3 hours. Remove 1 mL of passage culture from test tube and place in sterile microcentrifuge tube. Centrifuge (1±0.5 min at max speed) to pellet. Wash pellet with 1±0.1 mL RPMI, no ABX, no FCS. Centrifuge to pellet and re-suspend in 1±0.1 mL fresh RPMI. Check OD 600 to determine bacterial density and dilute as necessary to achieve ˜1E8 CFU/ml. Add bacteria: 2±1 μl per explant and return to incubator to infect 4±0.15 h.
Apply 50± μl of formulation per explant (mucosa side). Incubate at 37±2° C. for 24±0.5 h.
Remove tissue from transwells and place in appropriate neutralizer. Sonicate samples and vortex (30±5 second vortex, 2±0.1 minutes sonicate, and then 30±5 second vortex). Plate on Mannitol Salt Agar selective agar or Blood Agar at appropriate dilution and store dilutions at 4±2° C. The following day count plates and if TNTC, re-plate at higher dilution.

[3] = background statement; cited from earlier work
[4] = background statement; cited from earlier work; remark: listed apart in the source
[5] = background statement; cited from earlier work; remark: listed apart in the source
[6] = background statement; cited from earlier work; remark: listed apart in the source

C[N+](C)(C)C[C@H](O)CC(=O)[O-].O=C(O)/C=C/C(=O)O [carnitine fumarate, L-Carnitine fumarate]
homogenous solution or precipitation of octenidine [1]: resulted in the precipitation of octenidine

N=C(NCCCCCCNC(=N)NC(=N)Nc1ccc(Cl)cc1)NC(=N)Nc1ccc(Cl)cc1.O=C(O)[C@H](O)[C@@H](O)[C@H](O)[C@H](O)CO.O=C(O)[C@H](O)[C@@H](O)[C@H](O)[C@H](O)CO [chlorhexidine gluconate]
antimicrobial activity in the presence of carnitine enhancers (in words) [2]: performed better in the absence of carnitine enhancer

CCCCCCCCN=c1ccn(CCCCCCCCCCn2ccc(=NCCCCCCCC)cc2)cc1 [octenidine, octenidine hydrochloride]
contact dermatitis [3]: does not cause contact dermatitis
absorption through skin or mucous membranes [4]: not absorbed
cytotoxicity relative to chlorhexidine [5]: less cytotoxic than chlorhexidine
antimicrobial efficacy relative to chlorhexidine [6]: 3-10 times

benzalkonium chloride
antimicrobial activity in the presence of carnitine enhancers (in words) [2]: No effect

polyhexamethylene biguanide [polyhexamethylene biguanidine]
antimicrobial activity in the presence of carnitine enhancers (in words) [2]: performed better in the absence of carnitine enhancer
